Measured values as given in PMC9856044 (Biomolecules, 2023).

Tests used:
Tel22 G-quadruplex [1] = test: Thermal melting of Tel22 in sodium cacodylate buffer; assay type: binding, human; conditions: Tel22, r = 1.0, sodium cacodylate buffer, pH = 7.0, I = 0.1 mol dm^−3; error ± 0.5 °C
Experimental: (§1) Thermal melting curves for DNA, RNA and their complexes with studied compounds were determined as previously described by following the absorption change at 260 nm as a function of temperature. The absorbance of the ligands was subtracted from every curve and the absorbance scale was normalized. Tm values are the midpoints of the transition curves determined from the maximum of the first derivative and checked graphically by the tangent method. The ∆Tm values were calculated by subtracting Tm of the free nucleic acid from Tm of the complex. Every ∆Tm value here reported was the average of two measurements. The error in ∆Tm is ±0.5 °C. 5′-AGGG(TTAGGG)3–3′(Tel22) was obtained from IDT (Integrated DNA Technologies, Coralville, IA, USA). Tel22 was dissolved in 0.1 M either in sodium cacodylate or potassium phosphate buffer. The starting Tel22 oligonucleotide solution was first heated up to 95 °C for 10 min, then slowly cooled to 10 °C at the cooling rate of 1 °C/min to allow DNA oligonucleotide to adopt a G-quadruplex structure. The G-quadruplex structure was confirmed by thermal melting and CD spectra. The concentration of G quadruplex was expressed in terms of oligonucleotide structure. In fluorimetric titrations, aliquots of Tel 22 solution were added to the solution of ligands (c ~ 2 × 10^−7 M, in SI).

Fibroblasts = test: MTT cytotoxicity assay, normal human skin fibroblasts; assay type: cell-based; conditions: Fibroblast, 72 h incubation, ± SD
Experimental: (§2) Human cervical carcinoma HeLa (GIBCO BRL, Invitrogen, Waltham, MA, USA), human melanoma MDA-MB-435S and human ovarian adenocarcinoma SK-OV-3 (ATCC-LGC Standards GmbH, Wesel, Germany) cell lines were purchased from indicated cell culture banks. Normal human skin fibroblasts were isolated from the upper arm of a donor at the Neurochemical Laboratory, Department of Chemistry and Biochemistry, School of Medicine, University of Zagreb. HeLa, MDA-MB-435S and fibroblasts were grown in Dulbecco’s Modified Eagle’s Medium (DMEM; Sigma-Aldrich, St. Louis, MI, USA) while the SK-OV-3 cell line was grown in McCoy’s 5A medium (Capricorn Scientific, Ebsdorfergrund, Germany). All media were supplemented with 10% fetal bovine serum (FBS; Sigma-Aldrich) and 50 I.U./mL penicillin and 50 μg/mL streptomycin. Cells were cultured in a humidified atmosphere of 5% CO2 at 37 °C and were sub-cultured every 3–4 days. HeLa, MDA-MB-435S, SK-OV-3 cells and fibroblasts were seeded in 96 well plates. Twenty-four hours later the cells were treated, in quadruplicate, with different concentrations of compounds (dissolved in DMSO, kept at 4 °C and protected from light). Following 72 h of incubation at 37 °C, the medium was aspired and modified 3-(4,5-dimethylthiazol-2-yl)-2,5-diphenyltetrazolium bromide (MTT) assay was used to determine the cytotoxic effect of the tested compounds. Three hours later, formazan crystals were dissolved in DMSO (0.17 mL/well), the plates were mechanically agitated for 20 min and the optical density at 600 nm was determined on a microtiter plate reader (Awareness Technology Inc., Palm City, FL, USA). The experiments were repeated three times.

SK-OV-3 cells = test: MTT cytotoxicity assay, SK-OV-3; assay type: cell-based; conditions: Homo sapiens, SK-OV-3, 72 h incubation, ± SD
Experimental: as §2

poly(dGdC)2 (GC-DNA) = test: Fluorimetric titration with GC-DNA; assay type: binding; conditions: for log Ka / Ka (order of magnitude): GC-DNA; for Ka (order of magnitude): sodium cacodylate buffer, pH 7.0, I = 0.05 mol dm^−3, Scatchard equation; for K (fit parameter of titration curve): poly(dGdC)2, pH=7.0, sodium cacodylate buffer, I = 0.05 mol dm-3
Experimental: Materials. Polynucleotides were purchased as noted: poly A–poly U, calf thymus ctDNA, poly(dAdT)2 and poly(dGdC)2 (Sigma-Aldrich, St. Louis, MI, USA). Polynucleotides were dissolved in Na-cacodylate buffer, I = 0.05 mol dm^−3, pH = 7.0. The calf thymus ctDNA was additionally sonicated and filtered through a […]. Polynucleotide concentration was determined spectroscopically as the concentration of phosphates. Spectrophotometric titrations were performed at pH = 7.0 (I = 0.05 mol dm^−3, sodium cacodylate buffer) by adding aliquots of polynucleotide solution into the solution of the studied compound for fluorimetric experiments and CD experiments were done by adding aliquots of the compound stock solution into the solution of a polynucleotide. In fluorimetric experiments, an excitation wavelength of λexc = 425, 431, 423, 427, 406 and 407 nm, respectively, was used to avoid the inner filter effect caused due to increasing absorbance of the polynucleotide. Emission was collected in the range λem = 400–700 nm. Values for Ka obtained by processing titration data using the Scatchard equation [27], all have satisfactory correlation coefficients (≥0.98). Furthermore, linear changes were evident with increasing DNA or RNA concentration in most titrations. The exceptions to this were titrations of cyanine 3 with GC-DNA and titrations of dye 5 with ds-DNA and ds-RNA where sufficient data points in the non-linear part of the curve allowed estimation of binding affinity (Ka values were of the order 10^5 mol^−1 dm^−3; Figures S16, S22 and S23 in SI). Titration data were collected at a high excess of polynucleotide binding sites (r[1–6]/[nucleotide phosphate] < 0.1; see Figures S9–S26 in SI) where each molecule can bind to a separate binding site. Binding affinities of dye-DNA/RNA complexes were calculated by non-linear fitting using the Scatchard equation [27, 33]. The fluorescence changes of dye 5 in the titration with AT-DNA were too small to obtain an accurate binding constant (Figure S21 in SI).

Tel22 G-quadruplex [2] = test: Thermal melting of Tel22 in potassium phosphate buffer; assay type: binding, human; conditions: Tel22, r = 1.0, potassium phosphate buffer, pH = 7.0, I = 0.1 mol dm^−3; error ±0.5 °C
Experimental: as §1

[3] = Solubility and aggregation (UV/Vis characterization); assay type: physicochemical; conditions: sodium cacodylate buffer, I = 0.05 mol dm^−3, pH = 7.0; UV/Vis
Experimental: The UV/vis spectra were recorded on a Varian Cary 100 Bio spectrophotometer (Agilent, Santa Clara, CA, USA), CD spectra on JASCO J815 spectrophotometer (ABL&E Handels GmbH, Wien, Austria) and fluorescence spectra on a Varian Cary Eclipse spectrophotometer (Agilent, Santa Clara, CA, USA) at 25 °C using appropriate 1 cm path quartz cuvettes.
Studied compounds, 1–6 were soluble (c = 8 × 10^−4 mol dm^−3) in DMSO. […] Therefore, the stock solution of 2 was prepared fresh before use. The experiments were done in aqueous buffer (sodium cacodylate buffer, I = 0.05 mol dm^−3; pH = 7.0).
However, the shape of UV/Vis spectra of cyanine 2 changed with increasing concentration (calibration experiment in Figure S2 in SI). In addition to the dominant maximum at 432 nm (which most likely corresponds to the monomer form of the dye), the absorption band at 413 nm becomes more intense (Figure S2 in SI). Presumably, it corresponds to the aggregated form (H-aggregate). Based on the existence of an absorption band at 432 nm, only the monomer dye form is visible at high temperature (95 °C) (Figure S8b in SI). However, after cooling the solution to 25 °C, an additional band appears at 413 nm, which corresponds to the aggregated dye form.

SMILES | ∆Tm (Tel22 G-quadruplex [1]) [°C] | IC50 (Fibroblasts) [nM] | IC50 (SK-OV-3 cells) [nM] | log Ka (poly(dGdC)2 (GC-DNA)) | Ka (order of magnitude) (poly(dGdC)2 (GC-DNA)) | K (fit parameter of titration curve) (poly(dGdC)2 (GC-DNA)) | ∆Tm (Tel22 G-quadruplex [2]) [°C] | Aggregation in aqueous buffer [3]
CN1/C(=C/c2[se]c3ccccc3[n+]2C)Sc2ccccc21 [Compound 3, 3-methyl-2-((3-methylbenzo[d]thiazol-2(3H)-ylidene)methyl)benzo[d][1,3]selenazol-3-ium methosulphate] | 0.5 | 2380 ± 161 | 548 ± 102 | 5 | ~10^5 mol^−1 dm^−3 | 183746.7242 ±8918685.57223 | 0.5 | do not form aggregates
C[n+]1c(/C=C2\Sc3ccccc3N2CCCS)[se]c2ccccc21 [Compound 5, 2-((3-(3-mercaptopropyl)benzo[d]thiazol-2(3H)-ylidene)methyl)-3-methylbenzo[d][1,3]selenazol-3-ium methosulphate] | 2.1 | > 40000 | 29600 ± 5720 | 5 | ~10^5 mol^−1 dm^−3 | 282880.22043 ±15074133.56759 | 5.1 | significantly aggregate
